Source: patent US6358883B1, “Pesticidal and parasiticidal use of 1-aryl-1-(substituted thio, sulfinyl and sulfonyl)-2-nitroethane compounds” (American Cyanamid Company, priority 1998, dated 2002)

How the values were obtained:
Format in all cases: in vivo
[1] = tested on: M. incognita (Root Knot Nematode) larvae; test: Evaluation of test compounds against M. incognita larvae in microtiter plate wells (movement score); conditions: larvae scored for movement after 20-24 hours; also: key: A score of '9' indicates inactive worms with a straight, sticklike morphology; A score of '8' indicates inactive worms with a limp, curled or curved morphology; A score of '7' indicates dead/paralyzed worms after 72 hours
How it was run: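 Newly emerged M. incognita larvae in S Medium (buffered salt solution), 50-65 worms per well, exposed to test compounds in sealed microtiter wells. Movement scored after 20-24 h incubation; wells with obviously dead/paralyzed larvae scored positive. A score of "7" denotes dead/paralyzed worms after […].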

[2] = tested on: C. elegans (Bristol strain); test: Evaluation of test compounds against C. elegans (motility, 96-well plate); parameters: key: 9=complete kill in 4 hours; 8=complete kill in 24 hours; 7=markedly reduced motility in approximately 95% of worms in 24 hours; 0=normal motility, same as controls; conditions: motility at 4 and 24 hours
How it was run: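 Bristol-strain C. elegans in Na buffer added to wells containing dried compound (applied in 80% acetone) and incubated at 20 °C. Motility of adults and larvae scored subjectively but semi-quantitatively under a dissecting microscope at 4 and 24 h after immersion, plates tapped before reading.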

[3] = tested on: Spodoptera eridania, 2nd instar larvae, southern armyworm (SAW); test: Southern armyworm (SAW) leaf dip test; parameters: key: 0 = no effect; 1 = 10-25% kill; 2 = 26-35% kill; 3 = 36-45% kill; 4 = 46-55% kill; 5 = 56-65% kill; 6 = 66-75% kill; 7 = 76-85% kill; 8 = 86-99% kill; 9 = 100% kill
How it was run: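 Compound is dissolved at 10,000 ppm in 35% acetone/water, then diluted with water. Lima bean leaves are dipped for 3 seconds, dried and placed with ten 2nd instar larvae on damp filter paper. Mortality, reduced feeding and molting interference are scored at 5 days.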

[4] = tested on: Diabrotica virgifera virgifera Leconte, 2nd instar western corn rootworm (WCR); test: Western corn rootworm (WCR) soil test; parameters: key: 0 = no effect; 1 = 10-25% kill; 2 = 26-35% kill; 3 = 36-45% kill; 4 = 46-55% kill; 5 = 56-65% kill; 6 = 66-75% kill; 7 = 76-85% kill; 8 = 86-99% kill; 9 = 100% kill
How it was run: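 Compound in 35% acetone/water applied to talc at 1.25 mg active ingredient per jar (about 50 kg/ha), solvent evaporated, then mixed with millet seed and moist soil. Ten 2nd-instar larvae per jar; mortality counted after 5 days, missing larvae scored dead.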

[5] = tested on: Tetranychus urticae (OP-resistant strain), 2-spotted spider mite (TSM); test: 2-spotted spider mite (TSM) plant dip test; parameters: key: 0 = no effect; 1 = 10-25% kill; 2 = 26-35% kill; 3 = 36-45% kill; 4 = 46-55% kill; 5 = 56-65% kill; 6 = 66-75% kill; 7 = 76-85% kill; 8 = 86-99% kill; 9 = 100% kill; conditions: mortality after 2 days
How it was run: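 OP-resistant mites (~100 per leaf) were transferred onto Sieva lima bean primary leaves about 2 h before treatment. Infested plants were dipped for 3 s in compound from a 10,000 ppm stock in 35% acetone/water, diluted with water. Mortality was counted after 2 days.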

[6] = tested on: Aphis gossypii, cotton aphid (CA); test: Cotton aphid (CA) cotyledon dip test; parameters: key: 0 = no effect; 1 = 10-25% kill; 2 = 26-35% kill; 3 = 36-45% kill; 4 = 46-55% kill; 5 = 56-65% kill; 6 = 66-75% kill; 7 = 76-85% kill; 8 = 86-99% kill; 9 = 100% kill; conditions: mortality after 5 days
How it was run: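 Cotyledon-stage cotton plants infested overnight via a heavily infested leaf, then dipped in test solution (compound in 35% acetone/water, diluted with water) and dried. Mortality counted after 5 days.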

[7] = tested on: Spodoptera eridania, eggs-southern armyworm (SAW-Eggs); test: Southern armyworm eggs (SAW-Eggs) treated diet test; parameters: key: 0 = no effect; 1 = 10-25% kill; 2 = 26-35% kill; 3 = 36-45% kill; 4 = 46-55% kill; 5 = 56-65% kill; 6 = 66-75% kill; 7 = 76-85% kill; 8 = 86-99% kill; 9 = 100% kill; conditions: mortality after 7 days
Experimental: Test solutions are prepared by dissolving the test compound in a 35% acetone in water mixture to give a concentration of 10,000 ppm. Subsequent dilutions are made with water as needed. Spodoptera eridania, Eggs-southern Armyworm and Diabrotica undecimpunctata howardi, Eggs-southern Corn Rootworm (SAW-Eggs) and (SCR-Eggs) Wells containing artificial diet are treated with the test solutions and dried. The appropriate insect eggs are then placed in the wells. The wells are covered with vented, adhesive, clear plastic covers. After 7 days, mortality counts are made. [table]

[8] = tested on: Diabrotica undecimpunctata howardi, eggs-southern corn rootworm (SCR-Eggs); test: Southern corn rootworm eggs (SCR-Eggs) treated diet test; parameters: key: 0 = no effect; 1 = 10-25% kill; 2 = 26-35% kill; 3 = 36-45% kill; 4 = 46-55% kill; 5 = 56-65% kill; 6 = 66-75% kill; 7 = 76-85% kill; 8 = 86-99% kill; 9 = 100% kill; conditions: mortality after 7 days
How it was run: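 Compounds dissolved at 10,000 ppm in 35% acetone/water, diluted with water, applied to artificial diet in wells and dried. Southern corn rootworm or southern armyworm eggs placed on treated diet under vented covers; mortality counted after 7 days.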

Compound	M. incognita (150 ppm) score [1]	Rating Against C. elegans (150 ppm) [2]	SAW (300 ppm) rating [3]	WCR (50 ppm) rating [4]	TSM (300 ppm) rating [5]	CA (300 ppm) rating [6]	SAW Eggs (300 ppm) rating [7]	SCR Eggs (1000 ppm) rating [8]
CCCSC(C[N+](=O)[O-])c1cccc(OC)c1 (stereo not drawn) [Example 61]	0	7	0	0	0	5 (5 = 56-65% kill)	0	0
COc1ccc(C(C[N+](=O)[O-])SCC(=O)OCc2ccccc2)cc1 (racemic) [Example 108]	9	8	0	0	0	0	9 (9 = 100% kill)	0
C=CCSC(C[N+](=O)[O-])c1ccc(OC(F)(F)F)cc1 (stereo not drawn) [Example 123]	0	7	0	5 (5 = 56-65% kill)	0	0	8 (8 = 86-99% kill)	0
CCCCC(CC)COC(=O)CSC(C[N+](=O)[O-])c1ccc(OC)cc1 (stereo not drawn) [Example 51]	0	0	0	4 (4 = 46-55% kill)	0	0	9 (9 = 100% kill)	8 (8 = 86-99% kill)
CCCCC(CC)COC(=O)CSC(C[N+](=O)[O-])c1cccc(OC)c1 (stereo not drawn) [Example 59]	0	0	0	0	0	0	0	0
C=CCSC(C[N+](=O)[O-])c1ccccc1 (stereo not drawn) [Example 2]	9	0					0	0
CCOC(=O)CSC(C[N+](=O)[O-])c1c(F)c(F)c(F)c(F)c1F (stereo not drawn) [Example 142]		8	0	9 (9 = 100% kill)	0	4 (4 = 46-55% kill)	0	0
CCCOC(=O)CSC(C[N+](=O)[O-])c1c(F)c(F)c(F)c(F)c1F (stereo not drawn) [Example 144]		7	0	9 (9 = 100% kill)	0	0	0	0
CCCOC(=O)CSc1c(F)c(F)c(C(C[N+](=O)[O-])SCC(=O)OCCC)c(F)c1F (stereo not drawn) [Example 145]		0	0	0	0	0	0	0
CCCCOC(=O)CSC(C[N+](=O)[O-])c1c(F)c(F)c(F)c(F)c1F (stereo not drawn) [Example 146]		7	0	8 (8 = 86-99% kill)	0	0	0	0
CCCCOC(=O)CSc1c(F)c(F)c(C(C[N+](=O)[O-])SCC(=O)OCCCC)c(F)c1F (stereo not drawn) [Example 147]		0	0	0	0	0	0	0
O=[N+]([O-])CC(SCc1ccccc1)c1ccco1 (stereo not drawn) [Example 203]		9	0	8 (8 = 86-99% kill)	0	0	9 (9 = 100% kill)	9 (9 = 100% kill)
C=CCSC(C[N+](=O)[O-])c1cc(OC)cc(OC)c1 (stereo not drawn) [Example 3]		0					0	0
O=C(O)CSC(C[N+](=O)[O-])c1c(F)c(F)c(F)c(F)c1F (stereo not drawn) [Example 139]		9	0	9 (9 = 100% kill)	0	0	0	0
O=[N+]([O-])CC(SCc1ccccc1)c1c(F)c(F)c(SCc2ccccc2)c(F)c1F (stereo not drawn) [Example 149]		0	0	0	0	0	0	0
O=[N+]([O-])CC(SCc1ccccc1)c1c(F)c(F)c(F)c(F)c1F (stereo not drawn) [Example 148]		0	0	0	0	0	0	0
COc1cccc(C(C[N+](=O)[O-])SCc2ccco2)c1 (stereo not drawn) [Example 158]		9	0	0	0	0	0	0
COC(=O)CSC(C[N+](=O)[O-])c1c(F)c(F)c(F)c(F)c1F (stereo not drawn) [Example 140]		8	6 (6 = 66-75% kill)	9 (9 = 100% kill)	0	0	0	0
CCOC(=O)CSc1c(F)c(F)c(C(C[N+](=O)[O-])SCC(=O)OCC)c(F)c1F (stereo not drawn) [Example 143]		0	0	0	0	0	0	0
COC(=O)CSc1c(F)c(F)c(C(C[N+](=O)[O-])SCC(=O)OC)c(F)c1F (stereo not drawn) [Example 141]		8	0	0	0	0	0	0
